How the values were obtained:
HCV NS5B570n-BK = target: T1, HCV NS5B570n-BK (Hepatitis C virus genotype 1b, UniProt P26663); assay: HCV NS5B RNA Polymerase Activity; format: biochemical, HCV BK strain; conditions: poly A:oligo U16, tritiated UTP, 2 h at 30° C.
T1 construct: histidine tag (N); made in house; host or cells: E. coli strain M15
Method: The enzymatic activity of HCV NS5B570n-BK is measured as incorporation of radiolabeled nucleotide monophosphates into acid insoluble RNA products. Unincorporated radiolabel substrate is removed by filtration and scintillant is added to the washed and dried filter plate containing radiolabeled RNA product. The light emitted by the scintillant is proportional to the amount of RNA product generated by NS5B570n-BK at the endpoint of the reaction.
The N-terminally histidine tagged HCV polymerase, derived from HCV BK strain, genotype 1b (NS5B570n-BK) contains a 21 amino acid deletion at the C-terminus relative to the full-length HCV polymerase and is purified from E. coli strain M15. The construct containing the coding sequence of HCV BK strain amino acid residues 2421-2999 (GenBank accession number M58335) downstream of a Taq promoter expression cassette was inserted into plasmid constructs. The plasmid constructs are transformed in E. coli and colonies are inoculated and grown overnight in 10 L of Terrific broth (Tartoff and Hobbs) supplemented with 100 μg/mL ampicillin at 37° C. Protein expression is induced by addition of 1 mM isopropyl-β-D -thiogalactopyranoside (IPTG), when optical densities reaches between 1.5 and 3.5 OD600 and the culture is then incubated for 16- to 18 h at 22° C. NS5B570n -BK is purified to homogeneity using a three step protocol including subsequent column chromatography on Ni-NTA, SP-Sepharose HP and Superdex 75 resins.
Each 50 μl enzymatic reaction contains 8:4 μg/mL poly A:oligo U16 (template:primer), 200 nM NS5B570n-BK enzyme, 2.1 μCi of tritiated UTP (Perkin Elmer catalog no. TRK -412; specific activity: 30 to 60 Ci/mmol; stock solution concentration from 7.5×10^−5 M to 20.6×10^−6 M), 1 μM ATP, CTP, and GTP, 40 mM Tris-HCl pH 8.0, 2 to 40 mM NaCl, 4 mM DTT (dithiothreitol), 4 mM MgCl2, and 5 μl of compound serial diluted in DMSO. Reaction mixtures are assembled in MADVN0B 96-well filter plates (Millipore Co.) and incubated for 2 h at 30° C. Reactions are stopped by addition of 10% (v/v) trichloroacetic acid and incubated for 40 min at 4° C. Reactions are filtered, washed with 6 reaction volumes of 10% (v/v) trichloroacetic acetic acid, 2 reaction volumes of 70% (v/v) ethanol, air dried, and 25 μl of scintillant (Microscint 20, Perkin-Elmer) is added to each reaction well.
The amount of light emitted from the scintillant is converted to counts per minute (CPM) on a Topcount® plate reader (Perkin-Elmer, Energy Range: Low, Efficiency Mode: Normal, Count Time: 1 min, Background Subtract: none, Cross talk reduction: Off).
Data is analyzed with GraphPad® Prism® and/or Microsoft® Excel®. The reaction in the absence of enzyme is used to determine the background signal, which is subtracted from the enzymatic reactions. Positive control reactions are performed in the absence of compound, from which the background corrected activity is set as 100% polymerase activity. All data is expressed as a percentage of the positive control. The compound concentration at which the enzyme-catalyzed rate of RNA synthesis is reduced by 50% (IC50) is calculated by fitting equation (i) to
[formula] the data, where “Y” corresponds to the relative enzyme activity (in %), “% Min” is the residual relative enzymatic activity at saturating compound concentration, “% Max” is the maximal relative enzymatic activity compared to positive control, X corresponds to the compound concentration, and “S” is the Hill coefficient (or slope). […]

[1] = tested on: Renilla luciferase HCV replicon cells (2209-23); assay: Renilla luciferase Assay (HCV replicon); format: cell-based, HCV; human hepatoma Huh7 cells; conditions: 72 h; replicon cell line 2209-23, three days incubation; read-out: R. luciferase Activity IC50
HCV = conditions: cited from earlier work

T1 sequence (P26663 2421-2999): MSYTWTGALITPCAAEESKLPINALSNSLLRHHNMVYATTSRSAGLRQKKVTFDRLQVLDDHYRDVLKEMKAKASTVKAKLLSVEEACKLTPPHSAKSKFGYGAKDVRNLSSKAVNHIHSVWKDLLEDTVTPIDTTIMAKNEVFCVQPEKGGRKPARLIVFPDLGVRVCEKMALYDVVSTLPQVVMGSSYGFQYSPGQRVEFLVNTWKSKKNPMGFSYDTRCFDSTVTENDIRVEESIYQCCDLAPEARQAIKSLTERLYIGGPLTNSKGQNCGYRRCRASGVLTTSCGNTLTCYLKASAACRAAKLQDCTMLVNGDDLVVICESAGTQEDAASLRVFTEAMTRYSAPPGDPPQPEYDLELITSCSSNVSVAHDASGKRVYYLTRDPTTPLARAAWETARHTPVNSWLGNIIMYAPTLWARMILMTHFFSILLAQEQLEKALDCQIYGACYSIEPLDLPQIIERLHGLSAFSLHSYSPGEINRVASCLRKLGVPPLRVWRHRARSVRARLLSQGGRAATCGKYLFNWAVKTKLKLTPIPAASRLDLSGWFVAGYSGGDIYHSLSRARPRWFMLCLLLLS

| SMILES | IC50 (HCV NS5B570n-BK) | melting point | IC50 [1] | effect on serum levels of HCV-RNA (HCV; monotherapy / sole treatment) | patients in whom serum amino transferase levels are reduced to normal (HCV; monotherapy) |
| --- | --- | --- | --- | --- | --- |
| CC(C)(C)C1C(O)=C(C2=NS(=O)(=O)c3c(O)cccc32)C(=O)N1Cc1ccc(F)cc1 (centres unmarked) [II-6, 5-tert-Butyl-1-(4-fluoro-benzyl)-4-hydroxy-3-(7-hydroxy-1,1-dioxo-1H-1λ^6-benzo[d]isothiazol-3-yl)-1,5-dihydro-pyrrol-2-one] | 52 nM | > 250 °C | 3260 nM |  |  |
| Cc1cc(CN2C(=O)C(C3=NS(=O)(=O)c4ccccc43)=C(O)[C@@H]2C(C)(C)C)ccc1F [II-15, (S)-5-tert-Butyl-3-(1,1-dioxo-1H-1λ^6-benzo[d]isothiazol-3-yl)-1-(4-fluoro-3-methyl-benzyl)-4-hydroxy-1,5-dihydro-pyrrol-2-one] | 138 nM | 105 to 111 °C | 125 nM |  |  |
| CC(C)(C)[C@H]1C(O)=C(C2=NS(=O)(=O)c3c(CNS(C)(=O)=O)cccc32)C(=O)N1Cc1ccc(F)cc1 [II-23, N-{3-[(S)-5-tert-Butyl-1-(4-fluoro-benzyl)-4-hydroxy-2-oxo-2,5-dihydro-1H-pyrrol-3-yl]-1,1-dioxo-1H-1λ^6-benzo[d]isothiazol-7-ylmethyl}-methanesulfonamide] | 76 nM | 105 to 128 °C | 56 nM |  |  |
| CC(C)(C)[C@H]1C(O)=C(C2=NS(=O)(=O)c3ccccc32)C(=O)N1Cc1ccc(F)c(Cl)c1 [II-31, (S)-5-tert-Butyl-1-(3-chloro-4-fluoro-benzyl)-3-(1,1-dioxo-1H-1λ^6-benzo[d]isothiazol-3-yl)-4-hydroxy-1,5-dihydro-pyrrol-2-one] | 208 nM | 81 to 96 °C | 288 nM |  |  |
| CN(Cc1cccc2c1S(=O)(=O)N=C2C1=C(O)C(C(C)(C)C)N(Cc2ccc(F)cc2)C1=O)S(C)(=O)=O (centres unmarked) [II-35, N-{3-[5-tert-Butyl-1-(4-fluoro-benzyl)-4-hydroxy-2-oxo-2,5-dihydro-1H-pyrrol-3-yl]-1,1-dioxo-1H-1λ^6-benzo[d]isothiazol-7-ylmethyl}-N-methyl-methanesulfonamide] | 154 nM | 115 to 125 °C | 108 nM |  |  |
| NC(=O)c1ncn([C@@H]2O[C@H](CO)[C@@H](O)[C@H]2O)n1 [ribavirin, 1-((2R,3R,4S,5R)-3,4-dihydroxy-5-hydroxymethyl-tetrahydro-furan-2-yl)-1H-[1,2,4]triazole-3-carboxylic acid amide] |  |  |  | does not lower serum levels of HCV-RNA | 40% |
